Source: patent US8383814B2, “Substituted tetrahydropyran spiro pyrrolidinone and piperidinone, preparation and therapeutic use thereof” (Sanofi, priority 2008, dated 2013)

Key:
rhesus H3 receptor = assay: GTPγS radioligand binding assay: inhibition of rhesus H3 constitutive functional activity in cell membranes (inverse agonism); format: biochemical, rhesus monkey (Macacca Mulatta); parameters: concentration or dose not given beside the values; conditions: negative value = below basal level
Experimental: (§1) Rhesus H3 membranes were prepared from the Flp-In T-REx 293 Cell Line (Invitrogen) stably transfected with pcDNA5/FRT/TO (Invitrogen) containing the rhesus monkey (Macacca Mulatta) 445 amino acid H3 receptor. (Genbank #AY231164). Stably transfected cultures were amplified in tissue culture flasks by standard tissue culture methods and induced to express rhesus H3 by exposure to 500 ng/ml tetracycline (Cellgro) for 24 hours. After induction, cells were dissociated from flasks utilizing Cell Stripper (Cellgro). Cells were centrifuged (1K×g, 5 min) and pellet frozen in an ethanol-dry ice bath to disrupt cell membranes. Frozen cell pellet was re-suspended in 5 mM HEPES (pH 7.4, Invitrogen) at 10 ml/1000 cm2 of harvested cells. The cell suspension was drawn through an 18 gauge needle (2-3×) followed by a 23 gauge needle (2-3×) to further disrupt cell membranes. The cell suspension was centrifuged (40K×g, 30 min). Cell membrane pellet was re-suspended in 5 mM HEPES (pH 7.4, Invitrogen) at a final protein concentration of 10 mg/ml. Rhesus H3 membranes were stored under liquid nitrogen prior to use in [3H]-Methylhistamine and GTP S radioligand binding assays.

[1] = molecular target: T1, rhesus (Macacca Mulatta) H3 receptor (Macaca mulatta, UniProt Q865E1); assay: Rhesus H3 radioligand binding assay ([3H]-methylhistamine displacement, WGA SPA beads); parameters: species or system rhesus monkey (Macacca Mulatta); conditions: [3H]-methylhistamine 2 nM; membranes of Flp-In T-REx 293 cells expressing rhesus H3; Cheng-Prusoff
T1 construct: pcDNA5/FRT/TO (Invitrogen) containing the rhesus monkey (Macacca Mulatta) 445 amino acid H3 receptor
T1 sequence (Q865E1 1-445): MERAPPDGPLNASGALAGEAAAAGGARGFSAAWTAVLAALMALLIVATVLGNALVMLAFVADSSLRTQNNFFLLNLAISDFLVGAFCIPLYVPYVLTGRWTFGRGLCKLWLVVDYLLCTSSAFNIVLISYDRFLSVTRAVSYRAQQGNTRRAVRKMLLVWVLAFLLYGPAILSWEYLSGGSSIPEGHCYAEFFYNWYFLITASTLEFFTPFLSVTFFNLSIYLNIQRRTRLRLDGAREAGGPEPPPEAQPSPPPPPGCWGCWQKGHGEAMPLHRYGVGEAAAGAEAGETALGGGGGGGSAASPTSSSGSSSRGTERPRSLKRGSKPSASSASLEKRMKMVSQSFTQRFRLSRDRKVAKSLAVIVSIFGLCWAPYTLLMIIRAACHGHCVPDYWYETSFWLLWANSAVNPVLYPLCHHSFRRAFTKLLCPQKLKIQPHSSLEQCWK
Experimental: as §1
Rhesus H3 radioligand binding assay was performed using rhesus H3 receptor membranes (prepared as described above), [3H]-Methylhistamine (Perkin Elmer) and WGA SPA beads (wheat germ agglutinin scintillation proximity assay) beads (Amersham). The assay was performed in 96-well Opti-Plates (Packard). Each reaction contained 50 μl rhesus H3 membranes (20-30 μg total protein), 50 μl WGA SPA beads (0.1 μg) and 50 μl of 83 Ci/mmol [^3H]-Methylhistamine (final concentration 2 nM) and 50 μl of tested compound. The compounds of this invention and/or vehicle were diluted with binding buffer from 10 mM DMSO stocks. Assay plates were sealed with TopSeal (Perkin Elmer) and mixed on shaker (25° C., 1 hour). Assay plates were read on TopCount scintillation counter (Packard). Results were analyzed by Hill transformation and Ki values were determined by Cheng-Prusoff equation.

Compound | Inverse Agonism: % inhibition of Basal GTPγS binding in Rhesus H3 (rhesus H3 receptor) [%] | Ki [1] [nM]
Cc1cc(N2CC[C@H](N3CCC[C@@H]3C)C2)ccc1N1CCC2(CCOCC2)C1=O [Example 1, 2-[2-Methyl-4-((2S,3′S)-2-methyl-[1,3′]bipyrrolidinyl-1′-yl)-phenyl]-8-oxa-2-aza-spiro[4.5]decan-1-one] | −25 | 0.93
Cc1cc(N2CC[C@H](N3CCC[C@@H]3C)C2)ccc1N1CCCC2(CCOCC2)C1=O [Example 2, 2-[2-Methyl-4-((2S,3′S)-2-methyl-[1,3′]bipyrrolidinyl-1′-yl)-phenyl]-9-oxa-2-aza-spiro[5.5]undecan-1-one] | −9 | 0.38
C[C@H]1CCCN1[C@H]1CCN(c2ccc(N3CCC4(CCOCC4)C3=O)cc2)C1 [Example 3, 2-[4-((2S,3′S)-2-Methyl-[1,3′]bipyrrolidinyl-1′-yl)-phenyl]-8-oxa-2-aza-spiro[4.5]decan-1-one] | −26 | 0.63
C[C@H]1CCCN1[C@H]1CCN(c2ccc(N3CCC4(CCOCC4)C3=O)cc2F)C1 [Example 4, 2-[3-Fluoro-4-((2S,3′S)-2-methyl-[1,3′]bipyrrolidinyl-1′-yl)-phenyl]-8-oxa-2-aza-spiro[4.5]decan-1-one] | −31 | 2.1
Cc1cc(N2CCC(N3CCC[C@@H]3C)CC2)ccc1N1CCC2(CCOCC2)C1=O [Example 5, 2-{2-Methyl-4-[4-((2S,3′S)-2-methyl-pyrrolidin-1-yl)-piperidin-1-yl]-phenyl}-8-oxa-2-aza-spiro[4.5]decan-1-one] | −11 | 0.7
Cc1cc(N2CC[C@H](N3CCC[C@H]3C)C2)ccc1N1CCC2(CCOCC2)C1=O [Example 6] | −36 | 38
CCC1CCCN1C1CCN(c2ccc(N3CCC4(CCOCC4)C3=O)c(F)c2)C1 (centres unmarked) [Example 7, 2-[4-(2-Ethyl-[1,3′]bipyrrolidinyl-1′-yl)-2-fluoro-phenyl]-8-oxa-2-aza-spiro[4.5]decan-1-one] | −35 | 5.2
CC(C)C1CCCN1C1CCN(c2ccc(N3CCC4(CCOCC4)C3=O)c(F)c2)C1 (centres unmarked) [Example 8, 2-[2-Fluoro-4-(2-isopropyl-[1,3′]bipyrrolidinyl-1′-yl)-phenyl]-8-oxa-2-aza-spiro[4.5]decan-1-one] | −22 | 76
CCCC1CCCN1C1CCN(c2ccc(N3CCC4(CCOCC4)C3=O)c(F)c2)C1 (centres unmarked) [Example 9, 2-[2-Fluoro-4-(2-propyl-[1,3′]bipyrrolidinyl-1′-yl)-phenyl]-8-oxa-2-aza-spiro[4.5]decan-1-one] | −30 | 170
C[C@H]1CCCN1C1CCN(c2ccc(N3CCC4(CCOCC4)C3=O)c(F)c2)CC1 [Example 10, 2-{2-Fluoro-4-[4-((2S,3′S)-2-methyl-pyrrolidin-1-yl)piperidin-1-yl]-phenyl}-8-oxa-2-aza-spiro[4.5]decan-1-one] | −33 | 0.16
C[C@H]1CCCN1[C@H]1CCN(c2ccc(N3CCC4(CCOCC4)C3=O)c(F)c2)C1 [Example 11, 2-[2-Fluoro-4-((2S,3′S)-2-methyl-[1,3′]bipyrrolidinyl-1′-yl)-phenyl]-8-oxa-2-aza-spiro[4.5]decan-1-one] | −11 | 0.45
C[C@H]1CCCCN1C1CCN(c2ccc(N3CCC4(CCOCC4)C3=O)c(F)c2)CC1 [Example 12, 2-[2-Fluoro-4-((2S,3′S)-2-methyl-[1,4]bipiperidinyl-1′-yl)-phenyl]-8-oxa-2-aza-spiro[4.5]decan-1-one] | −22 | 0.45
CC(C)C1CCCN1C1CCN(c2ccc(N3CCC4(CCOCC4)C3=O)cc2)CC1 (centres unmarked) [Example 13, 2-{4-[4-(2-Isopropyl-pyrrolidin-1-yl)-piperidin-1-yl]-phenyl}-8-oxa-2-aza-spiro[4.5]decan-1-one] | −22 | 16
CCCC1CCCN1C1CCN(c2ccc(N3CCC4(CCOCC4)C3=O)cc2)CC1 (centres unmarked) [Example 14, 2-{4-[4-(2-Propyl-pyrrolidin-1-yl)-piperidin-1-yl]-phenyl}-8-oxa-2-aza-spiro[4.5]decan-1-one] | −33 | 13
COCC1CCCN1C1CCN(c2ccc(N3CCC4(CCOCC4)C3=O)cc2)C1 (centres unmarked) [Example 15, 2-[4-(2-Methoxymethyl-[1,3′]bipyrrolidinyl-1′-yl)-phenyl]-8-oxa-2-aza-spiro[4.5]decan-1-one] | −26 | 190
C[C@H]1CCCN1C1CCN(c2ccc(N3CCC4(CCOCC4)C3=O)cc2)CC1 [Example 16, 2-{4-[4-((2S,3′S)-2-Methyl-pyrrolidin-1-yl)-piperidin-1-yl]-phenyl}-8-oxa-2-aza-spiro[4.5]decan-1-one] | −29 | 0.52
C[C@H]1CCCN1[C@H]1CCN(c2ccc(N3CCCC4(CCOCC4)C3=O)cc2F)C1 [Example 17, 2-[3-Fluoro-4-(2-methyl-[1,3′]bipyrrolidinyl-1′-yl)-phenyl]-9-oxa-2-aza-spiro[5.5]undecan-1-one] | −16 | 2.5
CCC1CCCN1C1CCN(c2ccc(N3CCC4(CCOCC4)C3=O)c(C(F)(F)F)c2)CC1 (centres unmarked) [Example 18, 2-{4-[4-(2-Ethyl-pyrrolidin-1-yl)-piperidin-1-yl]-2-trifluoromethyl-phenyl}-8-oxa-2-aza-spiro[4.5]decan-1-one] | −35 | 4.3
CC(C)C1CCCN1C1CCN(c2ccc(N3CCC4(CCOCC4)C3=O)c(C(F)(F)F)c2)CC1 (centres unmarked) [Example 19, 2-{4-[4-(2-Isopropyl-pyrrolidin-1-yl)-piperidin-1-yl]-2-trifluoromethyl-phenyl}-8-oxa-2-aza-spiro[4.5]decan-1-one] | −8 | 100
CCCC1CCCN1C1CCN(c2ccc(N3CCC4(CCOCC4)C3=O)c(C(F)(F)F)c2)C1 (centres unmarked) [Example 20, 2-[4-(2-Propyl-[1,3′]bipyrrolidinyl-1′-yl)-2-trifluoromethyl-phenyl]-8-oxa-2-aza-spiro[4.5]decan-1-one] | −12 | 650
C[C@H]1CCCN1C1CCN(c2ccc(N3CCC4(CCOCC4)C3=O)c(C(F)(F)F)c2)CC1 [Example 21, 2-{4-[4-((2S,3′S)-2-Methyl-pyrrolidin-1-yl)-piperidin-1-yl]-2-trifluoromethyl-phenyl}-8-oxa-2-aza-spiro[4.5]decan-1-one] | −19 | 0.42
C[C@H]1CCCN1[C@H]1CCN(c2ccc(N3CCC4(CCOCC4)C3=O)c(C(F)(F)F)c2)C1 [Example 22, 2-[4-((2S,3′S)-2-Methyl-[1,3′]bipyrrolidinyl-1′-yl)-2-trifluoromethyl-phenyl]-8-oxa-2-aza-spiro[4.5]decan-1-one] | −21 | 8.6
C[C@H]1CCCCN1C1CCN(c2ccc(N3CCC4(CCOCC4)C3=O)c(C(F)(F)F)c2)CC1 [Example 23, 2-[4-((2S,3′S)-2-Methyl-[1,4]bipiperidinyl-1′-yl)-2-trifluoromethyl-phenyl]-8-oxa-2-aza-spiro[4.5]decan-1-one] | −29 | 1.5
CCCC1CCCN1C1CCN(c2ccc(N3CCC4(CCOCC4)C3=O)c(CC)c2)CC1 (centres unmarked) [Example 24, 2-{2-Ethyl-4-[4-(2-propyl-pyrrolidin-1-yl)-piperidin-1-yl]-phenyl}-8-oxa-2-aza-spiro[4.5]decan-1-one] | −18 | 18
CCc1cc(N2CCC(N3CCCC3COC)CC2)ccc1N1CCC2(CCOCC2)C1=O (centres unmarked) [Example 25, 2-{2-Ethyl-4-[4-(2-methoxymethyl-pyrrolidin-1-yl)piperidin-1-yl]-phenyl}-8-oxa-2-aza-spiro[4.5]decan-1-one] | −13 | 4.9
CCc1cc(N2CCC(N3CCC[C@@H]3C)C2)ccc1N1CCC2(CCOCC2)C1=O (some centres unmarked) [Example 26] |  | 0.13
C[C@H]1CCCN1[C@H]1CCN(c2ccc(N3CCCC4(CCOCC4)C3=O)c(F)c2)C1 [Example 27, 2-[2-Fluoro-4-((2S,3′S)-2-methyl-[1,3′]bipyrrolidinyl-1′-yl)-phenyl]-9-oxa-2-aza-spiro[5.5]undecan-1-one] | −20 | 0.7
